Here are results for eight molecules from paper PMC8695410 (RSC Advances, 2021).

Assay [1] concerns the target FXa (Homo sapiens, UniProt P00742). Description: In vitro chromogenic factor Xa inhibitory assay. It counts as biochemical.
Assay [2] relates to thrombin. The settings on record: cited from earlier work; for IC50: thrombin inhibitors.

Chain of FXa (P00742 235-488 limits assumed): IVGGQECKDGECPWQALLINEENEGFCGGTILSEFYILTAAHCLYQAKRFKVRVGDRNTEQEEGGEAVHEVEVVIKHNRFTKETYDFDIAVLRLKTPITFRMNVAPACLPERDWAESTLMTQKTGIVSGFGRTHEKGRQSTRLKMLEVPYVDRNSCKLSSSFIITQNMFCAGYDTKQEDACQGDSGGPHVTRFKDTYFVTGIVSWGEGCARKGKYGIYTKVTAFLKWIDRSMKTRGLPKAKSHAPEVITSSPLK
Chain of FXa (P00742 41-179 partner limits assumed): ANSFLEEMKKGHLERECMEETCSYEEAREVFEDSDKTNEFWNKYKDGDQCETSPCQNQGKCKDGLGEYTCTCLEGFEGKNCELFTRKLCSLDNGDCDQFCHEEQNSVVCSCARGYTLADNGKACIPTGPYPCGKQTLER

A word on the IC50: it is the concentration that gives 50% inhibition. Consider `O=c1cc(-c2ccc(O)cc2)oc2cc(O)ccc12` [Compound 1, 7,4′-dihydroxyflavone], for which, in assay [1], the “FXa inhibitory activity (in words)” value is given as “Moderate activity” and the IC50 amounted to 67.1 ± 1.75 µM.
In assay [1], `COc1ccc(-c2coc3cc(O)ccc3c2=O)cc1` [Compound 2, 7-hydroxy-4′-methoxyisoflavone] yielded a half-inhibitory concentration (IC50) of 17.7 ± 0.28 µM.
For `CC1(C)C=Cc2c(ccc3c2OC[C@@H](c2ccc(O)cc2O)C3)O1` [Compound 3, 3-R-glabridin], in assay [1], the “FXa inhibitory activity (in words)” value is reported as “Moderate activity” and the 50% inhibitory concentration (IC50) turned out to be 35.3 ± 1.03 µM.
As to `O=C(/C=C/c1ccc(O)cc1)c1ccc(O)cc1O` [Compound 4, isoliquiritigenin], in assay [1], the “FXa inhibitory activity (in words)” value was “Moderate activity” and inhibition was half-maximal at 74.4 ± 1.29 µM (IC50). Moreover, the IC50 in assay [2] is 17.9 µM.
Take `O=C1C[C@@H](c2ccc(O[C@@H]3O[C@H](CO)[C@@H](O)[C@H](O)[C@H]3O)cc2)Oc2cc(O)ccc21` [Compound 5, liquiritin]: half-maximal inhibition in assay [1] (IC50) was put at 5.15 ± 0.09 µM. Besides, the “thrombin inhibitory effects (in words)” value in assay [2] is listed as “negligible”.
`COc1c(/C=C/C(=O)c2ccc(O)c(O)c2)ccc(O)c1O` [Compound 7, 3,3′,4,4′-tetrahydroxy-2-methoxychalcone]: the IC50 in assay [1] turned out to be 10.4 ± 0.52 µM.
For the molecule “isoliquiritigenin-4-O-β-D-apiosylglucoside [Compound 10]”, the “FXa inhibitory activity (in words)” value in assay [1] is “very weak effects”. Besides, the IC50 in assay [2] is 37.9 µM.
As for “liquiritigenin-4′-O-β-D-apiosyl(1-2)-β-D-glucoside [Compound 8]”, the “FXa inhibitory activity (in words)” value in assay [1] was “very weak effects”.
